Measurements published in patent US20160002248A1, “GLS1 INHIBITORS FOR TREATING DISEASE” (Board of Regents, The University of Texas System, priority 2014, published 2016).

Tests used:
A549 cells = test: Proliferation Assay (A549 cell viability, Cell Titer Fluor); format: cell-based; conditions: Homo sapiens, 72 hours
Protocol: A549 cells were routinely maintained in RPMI 1640 media (Gibco catalog number 11875-093) supplemented with 10% dialyzed fetal bovine serum using a humidified incubator (37° C., 5% CO2 and ambient O2). In preparation for the viability assay, cells were inoculated into 384-well black CulturPlates (Perkin Elmer) at a density of 1000 cells/well in a volume of 40 uL. Following a 24-hour incubation at 37° C., 5% CO2 and ambient O2, cells were treated with compound (10 uL) in a final DMSO concentration of 0.5% (v/v). The microplates were then incubated for 72 hours (37° C., 5% CO2 and ambient O2). Cell Titer Fluor (Promega) was subsequently added (10 uL of 6× reagent) and mixed for 15 minutes at room temperature. The plates were then incubated for 30 minutes (37° C., 5% CO2 and ambient O2) and fluorescence was subsequently read on the Perkin Elmer Envision plate reader. EC50 values were calculated using a four-parameter logistic curve fit.

[1] = target: T1, purified recombinant human GAC (GLS1) (Homo sapiens, UniProt O94925); test: GLS1 Enzymatic Activity Assay (dual-coupled enzymatic assay); format: biochemical
T1 sequence (O94925 55-598 isoform O94925-3 limits assumed): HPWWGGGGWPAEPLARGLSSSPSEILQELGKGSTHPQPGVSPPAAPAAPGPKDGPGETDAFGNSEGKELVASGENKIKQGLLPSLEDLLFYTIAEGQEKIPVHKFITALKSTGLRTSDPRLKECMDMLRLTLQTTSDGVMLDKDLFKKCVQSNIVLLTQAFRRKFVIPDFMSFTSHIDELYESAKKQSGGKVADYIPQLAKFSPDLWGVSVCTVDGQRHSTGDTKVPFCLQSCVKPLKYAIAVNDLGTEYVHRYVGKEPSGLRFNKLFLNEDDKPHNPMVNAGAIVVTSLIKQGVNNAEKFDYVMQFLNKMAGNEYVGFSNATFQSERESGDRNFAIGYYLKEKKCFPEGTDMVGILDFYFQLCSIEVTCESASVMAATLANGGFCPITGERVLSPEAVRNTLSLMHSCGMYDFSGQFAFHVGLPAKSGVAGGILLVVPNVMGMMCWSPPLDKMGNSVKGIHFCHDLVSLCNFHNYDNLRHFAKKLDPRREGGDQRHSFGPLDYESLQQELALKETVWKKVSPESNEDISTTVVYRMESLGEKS
Protocol: GLS1 Enzymatic Activity Assay
The inhibition of purified recombinant human GAC by varying concentrations of inhibitors is assessed via a dual-coupled enzymatic assay. The glutamate produced by the glutaminase reaction is used by glutamate oxidase to produce α-ketoglutarate, ammonia, and hydrogen peroxide, with this hydrogen peroxide subsequently being used by horseradish peroxidase to produce resorufin in the presence of Amplex UltraRed. The assay buffer consisted of 50 mM Hepes (pH 7.4), 0.25 mM EDTA and 0.1 mM Triton X-100. GAC was incubated with potassium phosphate (10 minutes at room temperature) prior to incubation with inhibitor (10 minutes at room temperature). The final reaction conditions were as follows: 2 nM GAC, 50 mM potassium phosphate, 100 mU/mL glutamate oxidase (Sigma), 1 mM glutamine (Sigma), 100 mU/mL horseradish peroxidase (Sigma), 75 μM Amplex UltraRed (Life Technologies), and 1% (v/v) DMSO. The production of resorufin was monitored on a Perkin Elmer Envision plate reader (excitation 530 nm, emission 590 nm) either in a kinetics or endpoint mode (at 20 minutes). IC50 values were calculated using a four-parameter logistic curve fit.

SMILES	EC50 (A549 cells) [nM]	IC50 [1] [nM]
O=C(Nc1nnc(CCCCc2cc3cc(C4CC4)[nH]c3nn2)s1)[C@@H](O)c1ccccc1 [Example 8, (S)—N-(5-(4-(6-Cyclopropyl-7H-pyrrolo[2,3-c]pyridazin-3-yl)butyl)-1,3,4-thiadiazol-2-yl)-2-hydroxy-2-phenylacetamide]	500 to 5000	< 100
O=C(Cc1ccccc1)Nc1ccn(CCCCc2cc3cc(Cc4ccccc4)[nH]c3nn2)c(=O)c1 [Example 9, N-(1-(4-(6-Benzyl-7H-pyrrolo[2,3-c]pyridazin-3-yl)butyl)-2-oxo-1,2-dihydropyridin-4-yl)-2-phenylacetamide]	500 to 5000	< 100
CC(C)CNC(=O)c1nnc(CCCCc2cc3cc(Cc4ccccc4)[nH]c3nn2)s1 [Example 10, 5-(4-(6-Benzyl-7H-pyrrolo[2,3-c]pyridazin-3-yl)butyl)-N-isobutyl-1,3,4-thiadiazole-2-carboxamide]	500 to 5000	100 to 500
CC(C)c1cc2cc(CCCCn3cc(C(=O)NCc4ccccn4)nn3)nnc2[nH]1 [Example 12, 1-(4-(6-isopropyl-7H-pyrrolo[2,3-c]pyridazin-3-yl)butyl)-N-(pyridin-2-ylmethyl)-1H-1,2,3-triazole-4-carboxamide]	500 to 5000	100 to 500
CC(C)Cc1cc2cc(CCCCn3cc(C(=O)NCc4ccccc4)nn3)nnc2[nH]1 [Example 13, N-benzyl-1-(4-(6-isobutyl-7H-pyrrolo[2,3-c]pyridazin-3-yl)butyl)-1H-1,2,3-triazole-4-carboxamide]	500 to 5000	100 to 500
O=C(NCc1ccccc1)c1cn(CCCCc2cc3cc(Cc4ccccc4)[nH]c3nn2)nn1 [Example 14, N-benzyl-1-(4-(6-benzyl-7H-pyrrolo[2,3-c]pyridazin-3-yl)butyl)-1H-1,2,3-triazole-4-carboxamide]	500 to 5000	< 100
O=C(NCc1ccccc1)c1cn(CCCCc2cc3c(I)c[nH]c3nn2)nn1 [Example 15, N-benzyl-1-(4-(5-iodo-7H-pyrrolo[2,3-c]pyridazin-3-yl)butyl)-1H-1,2,3-triazole-4-carboxamide]	500 to 5000	100 to 500
CC(C)(O)c1ccnc(CNC(=O)c2cn(CCCCc3cc4cc(C5CC5)[nH]c4nn3)nn2)c1 [Example 17, 1-(4-(6-Cyclopropyl-7H-pyrrolo[2,3-c]pyridazin-3-yl)butyl)-N-((4-(2-hydroxypropan-2-yl)pyridin-2-yl)methyl)-1H-1,2,3-triazole-4-carboxamide 2,2,2-trifluoroacetate]	500 to 5000	100 to 500
Cc1ccc(CNC(=O)c2cn(CCCCc3cc4c(Cl)c(C5CC5)[nH]c4nn3)nn2)cn1 [Example 19, 1-(4-(5-Chloro-6-cyclopropyl-7H-pyrrolo[2,3-c]pyridazin-3-yl)butyl)-N-((6-methylpyridin-3-yl)methyl)-1H-1,2,3-triazole-4-carboxamide 2,2,2-trifluoroacetate]	500 to 5000	< 100
O=C(NCc1ccccn1)c1cn(CCCCc2cc3c(-c4ccccc4)c[nH]c3nn2)nn1 [Example 20, 1-(4-(5-phenyl-7H-pyrrolo[2,3-c]pyridazin-3-yl)butyl)-N-(pyridin-2-ylmethyl)-1H-1,2,3-triazole-4-carboxamide]	> 5000	500 to 5000
O=C(NCc1ccccn1)c1cn(CCCCc2cc3cc(C4(O)COC4)[nH]c3nn2)nn1 [Example 21, 1-(4-(6-(3-hydroxyoxetan-3-yl)-7H-pyrrolo[2,3-c]pyridazin-3-yl)butyl)-N-(pyridin-2-ylmethyl)-1H-1,2,3-triazole-4-carboxamide]	> 5000	100 to 500
O=C(Cc1ccccc1)Nc1nnc(CCCCc2cnc3[nH]ccc3c2)s1 [Example 24, N-(5-(4-(1H-pyrrolo[2,3-b]pyridin-5-yl)butyl)-1,3,4-thiadiazol-2-yl)-2-phenylacetamide]	> 5000	100 to 500
O=C(NCc1cccc(OC(F)(F)F)c1)c1cn(CCCCc2cc3cc[nH]c3nn2)nn1 [Example 27, 1-(4-{7H-pyrrolo[2,3-c]pyridazin-3-yl}butyl)-N-{[3-(trifluoromethoxy)phenyl]methyl}-1H-1,2,3-triazole-4-carboxamide]	500 to 5000	100 to 500
O=C(Cc1ccccc1)Nc1ccn(CCCCc2cc3cc(C4CC4)[nH]c3nn2)c(=O)c1 [Example 29, N-[1-(4-{6-cyclopropyl-7H-pyrrolo[2,3-c]pyridazin-3-yl}butyl)-2-oxo-1,2-dihydropyridin-4-yl]-2-phenylacetamide]	500 to 5000	100 to 500
CC(C)(C)c1cc2cc(CCCCn3ccc(NC(=O)Cc4ccccc4)cc3=O)nnc2[nH]1 [Example 30, N-[1-(4-{6-tert-butyl-7H-pynolo[2,3-c]pyridazin-3-yl}butyl)-2-oxo-1,2-dihydropyridin-4-yl]-2-phenylacetamide]	500 to 5000	100 to 500
COc1cccc(CNC(=O)c2cn(CCCCc3cc4cc(C5CC5)[nH]c4nn3)nn2)n1 [Example 33, 1-(4-{6-cyclopropyl-7H-pyrrolo[2,3-c]pyridazin-3-yl}butyl)-N-[(6-methoxypyridin-2-yl)methyl]-1H-1,2,3-triazole-4-carboxamide]	500 to 5000	100 to 500
O=C(NCc1ccccn1)c1cn(CCCCc2cc3cc(Cc4ccccc4)[nH]c3nn2)nn1 [Example 34, 1-(4-{6-benzyl-7H-pyrrolo[2,3-c]pyridazin-3-yl}butyl)-N-(pyridin-2-ylmethyl)-1H-1,2,3-triazole-4-carboxamide]	500 to 5000	< 100

The remaining lines, values ahead:

EC50 (A549 cells) [nM]	IC50 [1] [nM]	SMILES
500 to 5000	< 100	NCc1cccc(CC(=O)Nc2nnc(CCCCc3cc4cc(Cc5ccccc5)[nH]c4nn3)s2)c1 [Example 6, 2-(3-(aminomethyl)phenyl)-N-(5-(4-(6-benzyl-7H-pyrrolo[2,3-c]pyridazin-3-yl)butyl)-1,3,4-thiadiazol-2-yl)acetamide]
100 to 500	100 to 500	O=C(NCc1ccccn1)c1cn(CCCCc2cc3cc(C4CC4)[nH]c3nn2)nn1 [Example 16, 1-(4-(6-cyclopropyl-7H-pyrrolo[2,3-c]pyridazin-3-yl)butyl)-N-(pyridin-2-ylmethyl)-1H-1,2,3-triazole-4-carboxamide]
100 to 500	< 100	Cc1ccc(CNC(=O)c2cn(CCCCc3cc4c(Br)c(C5CC5)[nH]c4nn3)nn2)cn1 [Example 18, 1-(4-(5-Bromo-6-cyclopropyl-7H-pyrrolo[2,3-c]pyridazin-3-yl)butyl)-N-((6-methylpyridin-3-yl)methyl)-1H-1,2,3-triazole-4-carboxamide 2,2,2-trifluoroacetate]
100 to 500	< 100	O=C(Cc1ccccn1)Nc1nnc(CCCCc2cc3cc(Cc4ccccc4)[nH]c3nn2)s1 [Example 26, N-[5-(4-{6-benzyl-7H-pyrrolo[2,3-c]pyridazin-3-yl}butyl)-1,3,4-thiadiazol-2-yl]-2-(pyridin-2-yl)acetamide]
100 to 500	500 to 5000	CC(C)Cc1cc2cc(CCCCn3cc(C(=O)NCc4ccccn4)nn3)nnc2[nH]1 [Example 28, 1-{4-[6-(2-methylpropyl)-7H-pyrrolo[2,3-c]pyridazin-3-yl]butyl}-N-(pyridin-2-ylmethyl)-1H-1,2,3-triazole-4-carboxamide]
100 to 500	< 100	O=C(NCc1cccc(OC(F)(F)F)c1)c1cn(CCCCc2cc3cc(C4CC4)[nH]c3nn2)nn1 [Example 32, 1-(4-{6-cyclopropyl-7H-pyrrolo[2,3-c]pyridazin-3-yl}butyl)-N-{[3-(trifluoromethoxy)phenyl]methyl}-1H-1,2,3-triazole-4-carboxamide]
100 to 500	< 100	Cc1ccc(CNC(=O)c2cn(CCCCc3cc4cc(C5CC5)[nH]c4nn3)nn2)cn1 [Example 35, 1-(4-{6-cyclopropyl-7H-pyrrolo[2,3-c]pyridazin-3-yl}butyl)-N-[(6-methylpyridin-3-yl)methyl]-1H-1,2,3-triazole-4-carboxamide]
